Test [1] deals with Rat2 fibroblasts stably transformed with a plasmid containing a CMV promotor controlled v-Src/Hu c-Src fusion gene. Put plainly: Anchorage Independent Src-transformed Fibroblast Proliferation Assay.
For a further test, the target named is T1, c-Src (Homo sapiens, UniProt P12931).
T1 construct: purchased Upstate Biotechnologies
Put plainly: c-Src Kinase Assay (ELISA format). Type of test: biochemical. As to the method:
Inhibitors of Src (partially purified preparation purchased from Upstate Biotechnologies) tyrosine kinase activity are analyzed in an ELISA format. […] Horseradish Peroxidase (HRP)-conjugated anti-phosphotyrosine is used to detect phosphorylated peptide via a color reaction. Conditions recommended by the manufacturer are employed.
Reaction conditions: Five microliter aliquots of each compound prepared fresh at the time of the assay are added as a solution in 10mM HEPES pH 7.5, 10% DMSO to the reaction well. Thirty-five microliters of reaction mix containing Src, buffer and peptide/bovine serum albumin mix are added to the compound wells and incubated at 30°C for 10 minutes (reaction buffer: 50mM TrisHCl pH 7.5, 10mM MgCl2, 0.1mM EGTA, 0.5mM Na3VO4). The reaction is started by addition of 10 microliters of ATP, incubated at 30°C for 1 hour, and stopped by addition of 20 microliters of 0.5M EDTA. The reaction mixture with the phosphorylated peptide is then transferred to a streptavidin-coated microtiter plate (provided in the kit) and allowed to bind for 20 minutes. Unbound peptide and reaction mixture is decanted and the plate is washed with PBS six times. HRP-conjugated phosphotyrosine antibody supplied in the kit is incubated with the plate for one hour, then decanted. The plate is again washed with PBS six times.
Activity is determined as % inhibition as calculated by the formula: (1 - Abs/Abs(max)) x 100 = % inhibition.

Where [2] appears, read: Rattus norvegicus, Rat2, 120 h, read-out: anch-indep src-tx fib IC50, suspension growth, MTS on Day 5.
Where [3] appears, read: read-out: anch-indep src-tx fib IC50, suspension growth, MTS on Day 5.

IC50 data for 26 molecules are collected here from patent publication EP1268431B1 (Wyeth, priority 2000, dated 2001).

SMILES strings stand for the structures. Values joined by “and” are separate entries in the source; they are usually repeats but may differ in a detail not shown here. Equal entries are not always repeated. Where two headings read alike, the source gives them in different places.

T1 sequence (P12931 whole entry, species assumed): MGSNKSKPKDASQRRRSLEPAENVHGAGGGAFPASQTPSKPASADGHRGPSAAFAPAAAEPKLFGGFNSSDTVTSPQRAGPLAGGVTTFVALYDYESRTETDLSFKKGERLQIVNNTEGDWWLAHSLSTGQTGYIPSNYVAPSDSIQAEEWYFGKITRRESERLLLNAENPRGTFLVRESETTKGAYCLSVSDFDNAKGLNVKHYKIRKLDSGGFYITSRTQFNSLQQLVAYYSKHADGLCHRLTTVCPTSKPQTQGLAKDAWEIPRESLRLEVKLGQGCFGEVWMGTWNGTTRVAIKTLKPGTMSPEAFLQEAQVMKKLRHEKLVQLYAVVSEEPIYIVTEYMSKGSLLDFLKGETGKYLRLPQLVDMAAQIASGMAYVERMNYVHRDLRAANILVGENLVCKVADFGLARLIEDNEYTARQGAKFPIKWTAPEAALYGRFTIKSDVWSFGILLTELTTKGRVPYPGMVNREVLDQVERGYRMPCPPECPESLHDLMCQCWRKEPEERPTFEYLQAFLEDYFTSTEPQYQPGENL

Take `COc1cc(Nc2c(C#N)cnc3cc(-c4cccc(CCN5CCOCC5)c4)ccc23)c(Cl)cc1Cl` [Example 28, 4-(2,4-Dichloro-5-methoxyanilino)-7-{3-[2-(4-morpholinyl)ethyl]phenyl}-3-quinolinecarbonitrile]: the results for the IC50 (in test [1] (setting [2]); against c-Src) were 4100 nM and 25 nM, respectively.
For the molecule `COc1cc(Nc2c(C#N)cnc3cc(-c4ccc(CN5CCOCC5)cc4)ccc23)c(Cl)cc1Cl` [Example 29, 4-(2,4-Dichloro-5-methoxyanilino)-7-[4-(4-morpholinylmethyl)phenyl]-3-quinolinecarbonitrile], the 50% inhibitory concentration (IC50) in test [1] (setting [2]) was 540 nM; in test [1] (setting [3]), 500 nM; at c-Src it was 4.1 nM and 2.5 nM.
For the molecule `CCN1CCN(CCc2ccc(-c3ccc4c(Nc5cc(OC)c(Cl)cc5Cl)c(C#N)cnc4c3)cc2)CC1` [Example 32, 4-(2,4-Dichloro-5-methoxyanilino)-7-{4-[2-(4-ethyl-1-piperazinyl)ethyl]phenyl}-3-quinolinecarbonitrile], the IC50 in test [1] (setting [2]) is 2000 nM; in test [1] (setting [3]) it was 1900 nM; on c-Src, 2.7 nM.
On the same counts, the results for `COc1cc(Nc2c(C#N)cnc3cc(-c4csc(CN5CCOCC5)c4)c(OC)cc23)c(Cl)cc1Cl` [Example 36, 4-(2,4-Dichloro-5-methoxyanilino)-6-methoxy-7-[5-(4-morpholinylmethyl)-3-thienyl]-3-quinolinecarbonitrile] are 160 nM, 200 nM and 1.9 nM.
On the same counts, the results for `COc1cc(Nc2c(C#N)cnc3cc(-c4ccc(CN5CCOCC5)cc4)c(OC)cc23)c(Cl)cc1Cl` [Example 37, 4-(2,4-Dichloro-5-methoxyanilino)-6-methoxy-7-[4-(4-molpholinylmethyl)phenyl]-3-quinolinecarbonitrile] are 1590 nM, 1490 nM and 19 nM.
On to `COc1cc(Nc2c(C#N)cnc3cc(-c4cccc(CCN5CCOCC5)c4)c(OC)cc23)c(Cl)cc1Cl` [Example 38, 4-(2,4-Dichloro-5-methoxyanilino)-6-methoxy-7-{3-[2-(4-morpholinyl)ethyl]phenyl}-3-quinolinecarbonitrile], for which the IC50 was found to be 12700 nM in test [1] (setting [2]), 10600 nM in test [1] (setting [3]) and 81 nM against c-Src.
Consider `COc1cc(Nc2c(C#N)cnc3cc(-c4ccc(CN5CCC[C@@H]5C(N)=O)o4)ccc23)c(Cl)cc1Cl` [Example 47, (2R)-1-({5-[3-Cyano-4-(2,4-dichloro-5-methoxyanilino)-7-quinolinyl]-2-furyl}methyl)-2-pyrrolidinecarboxamide], for which the IC50 in test [1] (setting [2]) came out at 1170 nM; against c-Src it was 1.1 nM.
The matching figures for `COc1cc(Nc2c(C#N)cnc3cc(-c4ccc(C5OCCO5)s4)ccc23)c(Cl)cc1Cl` [Example 51, 4-(2,4-Dichloro-5-methoxyanilino)-7-[5-(1,3-dioxolan-2-yl)-2-thienyl]-3-quinolinecarbonitrile]: 420 nM and 8.2 nM.
Regarding `COc1cc(Nc2c(C#N)cnc3cc(-c4ccc(CN5CCOCC5)o4)ccc23)c(Cl)cc1Cl` [Example 53, 4-(2.4-Dichloro-5-methoxyanilino)-7-[5-(4-morpholinylmethyl)-2-furyl]-3-quinolinecarbonitrile], the IC50 in test [1] (setting [2]) was determined as 250 nM; against c-Src it was 2.9 nM.
Regarding `COc1ccc(/C=C/c2ccc3c(Nc4cc(OC)c(Cl)cc4Cl)c(C#N)cnc3c2)cc1` [Example 54, 4-(2,4-Dichloro-5-methoxyanilino)-7-[(E)-2-(4-methoxyphenyl)ethenyl]-3-quinolinecarbonitrile], the IC50 in test [1] (setting [2]) was greater than 10000 nM; against c-Src it was 62 nM.
Consider `COc1cc(Nc2c(C#N)cnc3cc(-c4ccc(CNCCS(=O)(=O)c5ccccc5)o4)ccc23)c(Cl)cc1Cl` [Example 58, 4-(2,4-Dichloro-5-methoxyanilino)-7-[5-({[2-(phenylsulfonyl)ethyl]amino}methyl)-2-furyl]-3-quinolinecarbonitrile], for which the IC50 worked out at 5100 nM in test [1] (setting [2]) and 11 nM at c-Src.
Regarding `COc1cc(Nc2c(C#N)cnc3cc(-c4cncn4CCN4CCOCC4)ccc23)c(Cl)cc1Cl` [Example 64, 4-(2,4-Dichloro-5-methoxyanilino)-7-{1-[2-(4-morpholinyl)ethyl]-1H-imidazol-5-yl}-3-quinolinecarbonitrile], the IC50 was greater than 10000 nM in test [1] (setting [2]) and 950 nM against c-Src.
On the same counts, the results for `COc1cc(Nc2c(C#N)cnc3cc(-c4cscc4CN4CCOCC4)ccc23)c(Cl)cc1Cl` [Example 65, 4-(2,4-Dichloro-5-methoxyanilino)-7-[4-(4-morpholinylmethyl)-3-thienyl]-3-quinolinecarbonitrile] are greater than 10000 nM and 200 nM.
For the molecule `COc1cc(Nc2c(C#N)cnc3cc(-c4ccsc4CN4CCOCC4)ccc23)c(Cl)cc1Cl` [Example 66, 4-(2.4-Dichloro-5-methoxyanilino)-7-[2-(4-morpholinylmethyl)-3-thienyl]-3-quinolinecarbonitrile], the IC50 in test [1] (setting [2]) was greater than 10000 nM; at c-Src, 380 nM.
`COc1cc(Nc2c(C#N)cnc3cc(-c4ccc(N5CCOCC5)cc4)ccc23)c(Cl)cc1Cl` [Example 67, 4-(2,4-Dichloro-5-methoxyanilino)-7-[4-(4-morpholinyl)phenyl]-3-quinolinecarbonitrile]: the half-inhibitory concentration (IC50) is 110 nM in test [1] (setting [2]); 3 nM and 4.9 nM against c-Src.
In the case of `COc1cc(Nc2c(C#N)cnc3cc(-c4ccc(C=O)n4C)ccc23)c(Cl)cc1Cl` [Example 69, 4-(2,4-Dichloro-5-methoxyanilino)-7-(5-formyl-1-methyl-1H-pyrrol-2-yl)-3-quinolinecarbonitrile], the IC50 in test [1] (setting [2]) is greater than 10000 nM; against c-Src, 110 nM.
As to `COc1cc(Nc2c(C#N)cnc3cc(-c4ccc(CN5CCOCC5)n4C)ccc23)c(Cl)cc1Cl` [Example 70, 4-(2,4-Dichloro-5-methoxyanilino)-7-[1-methyl-5-(4-morpholinylmethyl)-1H-pyrrol-2-yl]-3-quinolinecarbonitrile], the IC50 in test [1] (setting [2]) was 6000 nM; at c-Src, 25 nM.
In the case of `COc1cc(Nc2c(C#N)cnc3cc(-c4ccc(CN5CCN(C)CC5)n4C)ccc23)c(Cl)cc1Cl` [Example 71, 4-(2,4-Dichloro-5-methoxyanilino)-7-{1-methyl-5-[(4-methyl-1-piperazinyl)methyl]-1H-pyrrol-2-yl}-3-quinolinecarbonitrile], the IC50 in test [1] (setting [2]) was 6800 nM; against c-Src, 26 nM and 24 nM.
`COc1cc(Nc2c(C#N)cnc3cc(-c4ccc(CNCCS(=O)(=O)c5ccccc5)n4C)ccc23)c(Cl)cc1Cl` [Example 72, 4-(2,4-Dichloro-5-methoxyanilino)-7-[1-methyl-5-({[2-(phenylsulfonyl)ethyl]amino}methyl)-1H-pyrrol-2-yl]-3-quinolinecarbonitrile]: the IC50 in test [1] (setting [2]) is greater than 10000 nM; against c-Src, 78 nM.
As to `COc1cc(Nc2c(C#N)cnc3cc(-c4ccc(CNCCS(C)(=O)=O)n4C)ccc23)c(Cl)cc1Cl` [Example 73, 4-(2,4-Dichloro-5-methoxyanilino)-7-[1-methyl-5-({[2-(methylsulfonyl)ethyl]amino}methyl)-1H-pyrrol-2-yl]-3-quinolinecarbonitrile], the 50% inhibitory concentration (IC50) is greater than 10000 nM in test [1] (setting [2]); 58 nM and 75 nM against c-Src.
In the case of `COc1cc(Nc2c(C#N)cnc3cc(-c4ccc(CNCCc5ccccn5)o4)ccc23)c(Cl)cc1Cl` [Example 74], the values for the half-inhibitory concentration (IC50) (in test [1] (setting [3]); at c-Src) were 1400 nM and 40 nM, respectively.
Take `COc1cc(Nc2c(C#N)cnc3cc(-c4ccc(CN5CCN(CCO)CC5)o4)ccc23)c(Cl)cc1Cl` [Example 75, 4-(2,4-Dichloro-5-methoxyanilino)-7-(5-{[4-(2-hydroxyethyl)-1-piperazinyl]methyl}-2-furyl)-3-quinolinecarbonitrile]: the figures for the IC50 (in test [1] (setting [2]); against c-Src) were 290 nM and 24 nM, respectively.
The matching figures for `COc1cc(Nc2c(C#N)cnc3cc(-c4ccc(CN(CCO)CCO)o4)ccc23)c(Cl)cc1Cl` [Example 76, 7-(5-{[Bis(2-hydroxyethyl)amino]methyl}-2-furyl)-4-(2,4-dichloro-5-methoxyanilino)-3-quinolinecarbonitrile]: 1100 nM and 22 nM.
For `COc1cc(Nc2c(C#N)cnc3cc(-c4ccc(CNCCS(C)(=O)=O)o4)ccc23)c(Cl)cc1Cl` [Example 77, 4-(2,4-Dichloro-5-methoxyanilino)-7-[5-({[2-(methylsulfonyl)ethyl]amino}methyl)-2-furyl]-3-quinolinecarbonitrile], the results for the half-inhibitory concentration (IC50) (in test [1] (setting [2]); against c-Src) were 420 nM and 21 nM, respectively.
The matching figures for `COc1cc(Nc2c(C#N)cnc3cc(-c4ccc(CN5CCCCC5)s4)ccc23)c(Cl)cc1Cl` [Example 78, 4-(2,4-Dichloro-5-methoxyanilino)-7-[5-(1-piperidinylmethyl)-2-thienyl]-3-quinolinecarbonitrile]: 140 nM and 1.3 nM.
Turning to `COc1cc(Nc2c(C#N)cnc3cc(-c4csc(CN5CCOCC5)c4)ccc23)c(Cl)cc1F` [Example 79, 4-(2-chloro-4-fluoro-5-methoxyanilino)-7-[5-(4-morpholinylmethyl)-3-thienyl]-3-quinolinecarbonitrile], the IC50 in test [1] (setting [2]) was determined as 130 nM; against c-Src it was 1.7 nM.
